{"source": "patent US8187629B2", "about": "“Non-lamellar compositions of DOPE and P80” (Camurus AB, priority 2004, dated 2012)", "origin": "cited, not measured here", "conditions": "room temperature; greater at physiological temperature"}
{"smiles": "CCCCCCCC/C=C\\CCCCCCCC(=O)OCC(O)CO", "note": "(stereo not shown) [GMO, glycerol monooleate]", "values": [{"measurement": "equilibrium water solubility", "result": "at least 10^−7 M"}]}
